Patent US8987195B2 (priority 2012, dated 2015)
Where two headings read alike, the source gives them in different places.

Assays:
HCV genotype 1b replicon = test: HCV replicon assay, genotype 1b replicon EC50; type: cell-based, Hepatitis C virus; settings: read-out: EC50 [gt-1b]
Method in brief: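 Replicon cells (Neo^r, some luciferase:Neo^r fusion); G418 removed at plating; compound dilution series, 24-48 h. Readout: RNA by 32P-probe hybridization/protection or TaqMan, normalized to cyclophilin A RNA, or luciferase. EC50 vs DMSO control, 4-parameter fit.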

[1] = biological target: HCV NS3/4A protease genotype 1b (Hepatitis C virus genotype 1b, UniProt P26663); test: HCV NS3/4A protease time-resolved fluorescence (TRF) assay, Ki against genotype 1b; type: biochemical
Method in brief: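 Enzyme was pre-incubated 30 min with inhibitor in HEPES pH 7.5 buffer (150 mM NaCl, 15% glycerol, 10 mM DTT). Reaction ran 2.5 h at room temperature with 25 nM europium TRF peptide substrate, read at ex 340/em 615 nm. Enzyme levels: 0.2 nM (1b), 0.4 nM (A156T), 0.025 nM (3a). Ki came from four-parameter IC50 via IC50=Ki(1+[S]/KM).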

[2] = Hepatitis C virus, genotype 1b replicon, HCOOH salt
[3] = IC50 [gt-1b] (nM), NS3/4A genotype 1b, enzyme 0.2 nM, HCOOH salt
[4] = Hepatitis C virus, genotype 1b replicon
[5] = IC50 [gt-1b] (nM), NS3/4A genotype 1b, enzyme 0.2 nM
[6] = IC50 [gt-1b], NS3/4A protease TRF assay, genotype 1b enzyme 0.2 nM

For `Cc1nc2ccccc2c2c1O[C@]1(CC2)C[C@H]2C(=O)N[C@]3(C(=O)NS(=O)(=O)C4(C)CC4)C[C@H]3/C=C\CCCCC[C@H](NC(=O)NCCc3ccccc3)C(=O)N2C1` [Example 288, (2R,6S,12Z,13aS,14aR,16aS)-5′-methyl-N-[(1-methylcyclopropyl)sulfonyl]-5,16-dioxo-6-{[(2-phenylethyl)carbamoyl]amino}-1,1′,2′,6,7,8,9,10,11,13a,14,15,16,16a-tetradecahydrospiro[cyclopropa[e]pyrrolo[1,2-a][1,4]diazacyclopentadecine-2,3′-pyrano[2,3-c]quinoline]-14a(5H)-carboxamide], the EC50 (HCV genotype 1b replicon; [2]) was 614 nM and the IC50 [1, 3] was 0.131 nM.
`Cc1nc2ccc(OC(F)F)cc2c2c1O[C@]1(CC2)C[C@H]2C(=O)N[C@]3(C(=O)NS(=O)(=O)C4(C)CC4)C[C@H]3/C=C\CCCCC[C@H](NC(=O)OC(C)(C)C)C(=O)N2C1` [Example 256, tert-butyl [(2R,6S,12Z,13aS,14aR,16aS)-9′-(difluoromethoxy)-5′-methyl-14a-{[(1-methylcyclopropyl)sulfonyl]carbamoyl}-5,16-dioxo-1,1′,2′,5,6,7,8,9,10,11,13a,14,14a,15,16,16a-hexadecahydrospiro[cyclopropa[e]pyrrolo[1,2-a][1,4]diazacyclopentadecine-2,3′-pyrano[2,3-c]quinolin]-6-yl]carbamate] gave an EC50 (HCV genotype 1b replicon; [4]) of 3.08 nM and an IC50 [1, 5] of 0.005 nM.
For `COc1ccc2nc(C(F)(F)F)c3c(c2c1)CC[C@]1(C[C@H]2C(=O)N[C@]4(C(=O)NS(=O)(=O)C5(C)CC5)C[C@H]4/C=C\CCCCC[C@H](NC(=O)OCC4(C)CC4)C(=O)N2C1)O3` [Example 498, (1-methylcyclopropyl)methyl [(2R,6S,12Z,13aS,14aR,16aS)-9′-methoxy-14a-{[(1-methylcyclopropyl)sulfonyl]carbamoyl}-5,16-dioxo-5′-(trifluoromethyl)-1,1′,2′,5,6,7,8,9,10,11,13a,14,14a,15,16,16a-hexadecahydrospiro[cyclopropa[e]pyrrolo[1,2-a][1,4]diazacyclopentadecine-2,3′-pyrano[2,3-c]quinolin]-6-yl]carbamate], the EC50 (HCV genotype 1b replicon; Hepatitis C virus, HCV replicon, genotype 1b, K+ salt) was 0.607 nM and the IC50 ([1]; IC50 [gt-1b], NS3/4A protease TRF assay, genotype 1b enzyme 0.2 nM, K+ salt) was 0.009 nM.
For `Cc1nc2ccccc2c2c1O[C@]1(CC2)C[C@H]2C(=O)N[C@]3(C(=O)NS(=O)(=O)C4(C)CC4)C[C@H]3/C=C\CCCCC[C@H](NC(=O)OC(C)C)C(=O)N2C1` [Example 105, propan-2-yl [(2R,6S,12Z,13aS,14aR,16aS)-5′-methyl-14a-{[(1-methylcyclopropyl)sulfonyl]carbamoyl}-5,16-dioxo-1,1′,2′,5,6,7,8,9,10,11,13a,14,14a,15,16,16a-hexadecahydrospiro[cyclopropa[e]pyrrolo[1,2-a][1,4]diazacyclopentadecine-2,3′-pyrano[2,3-c]quinolin]-6-yl]carbamate], the EC50 (HCV genotype 1b replicon; [4]) was 1.42 nM and the IC50 [1, 5] was 0.013 nM.
Molecule `Cc1nc2ccc(OC(F)(F)F)cc2c2c1O[C@]1(CC2)C[C@H]2C(=O)N[C@]3(C(=O)NS(=O)(=O)C4(C)CC4)C[C@H]3/C=C\CCCCC[C@H](NC(=O)OC(C)C)C(=O)N2C1` [Example 123, propan-2-yl [(2R,6S,12Z,13aS,14aR,16aS)-5′-methyl-14a-{[(1-methylcyclopropyl)sulfonyl]carbamoyl}-5,16-dioxo-9′-(trifluoromethoxy)-1,1′,2′,5,6,7,8,9,10,11,13a,14,14a,15,16,16a-hexadecahydrospiro[cyclopropa[e]pyrrolo[1,2-a][1,4]diazacyclopentadecine-2,3′-pyrano[2,3-c]quinolin]-6-yl]carbamate] has an EC50 (HCV genotype 1b replicon; [4]) of 2.07 nM and an IC50 [1, 5] of 0.017 nM.
Molecule `Cc1nc2ccccc2c2c1O[C@]1(CC2)C[C@H]2C(=O)N[C@]3(C(=O)NS(=O)(=O)C4(C)CC4)C[C@H]3/C=C\CCCCC[C@H](NC(=O)N3CCOCC3)C(=O)N2C1` [Example 291, (2R,6S,12Z,13aS,14aR,16aS)-5′-methyl-N-[(1-methylcyclopropyl)sulfonyl]-6-[(morpholin-4-ylcarbonyl)amino]-5,16-dioxo-1,1′,2′,6,7,8,9,10,11,13a,14,15,16,16a-tetradecahydrospiro[cyclopropa[e]pyrrolo[1,2-a][1,4]diazacyclopentadecine-2,3′-pyrano[2,3-c]quinoline]-14a(5R)-carboxamide] has an EC50 (HCV genotype 1b replicon; [2]) of 84.6 nM and an IC50 [1, 3] of 0.032 nM.
For `Cc1nc2ccccc2c2c1O[C@@]1(C[C@H]3C(=O)N[C@]4(C(=O)NS(=O)(=O)C5(C)CC5)C[C@H]4/C=C\CCCCC[C@H](NC(=O)OC4CCCC4)C(=O)N3C1)CC2(F)F` [Example 149, cyclopentyl [(2S,6S,12Z,13aS,14aR,16aS)-1′,1′-difluoro-5′-methyl-14a-{[(1-methylcyclopropyl)sulfonyl]carbamoyl}-5,16-dioxo-1,1′,2′,5,6,7,8,9,10,11,13a,14,14a,15,16,16a-hexadecahydrospiro[cyclopropa[e]pyrrolo[1,2-a][1,4]diazacyclopentadecine-2,3′-pyrano[2,3-c]quinolin]-6-yl]carbamate], the EC50 (HCV genotype 1b replicon; [4]) was 0.195 nM and the IC50 [1, 5] was 0.022 nM.
`Cc1nc2ccccc2c2c1O[C@]1(CC2)C[C@H]2C(=O)N[C@]3(C(=O)NS(=O)(=O)C4(C)CC4)C[C@H]3/C=C\CCCCC[C@H](NC(=O)OC3CCC(F)(F)C3)C(=O)N2C1` (stereo partly drawn) [Example 375, 3,3-difluorocyclopentyl [(2R,6S,12Z,13aS,14aR,16aS)-5′-methyl-14a-{[(1-methylcyclopropyl)sulfonyl]carbamoyl}-5,16-dioxo-1,1′,2′,5,6,7,8,9,10,11,13a,14,14a,15,16,16a-hexadecahydrospiro[cyclopropa[e]pyrrolo[1,2-a][1,4]diazacyclopentadecine-2,3′-pyrano[2,3-c]quinolin]-6-yl]carbamate] was tested, and the EC50 (HCV genotype 1b replicon; HCV replicon, genotype 1b) was 6.38 nM and the IC50 [1, 6] was 0.018 nM.
`CCc1ccc2nc(C)c3c(c2c1)C(F)C[C@]1(C[C@H]2C(=O)N[C@]4(C(=O)NS(=O)(=O)C5(C)CC5)C[C@H]4/C=C\CCCCC[C@H](NC(=O)OC(C)(C)C(F)(F)F)C(=O)N2C1)O3` (single isomer, unassigned) [Example 346] was tested, and the EC50 (HCV genotype 1b replicon; genotype 1b replicon) was 4.23 nM and the IC50 [1, 5] was 0.012 nM.
`COc1ccc2c3c(c(C4CC4)nc2c1)O[C@]1(CC3)C[C@H]2C(=O)N[C@]3(C(=O)NS(=O)(=O)C4(C)CC4)C[C@H]3/C=C\CCCCC[C@H](NC(=O)O[C@@H]3C[C@H](C)CC[C@H]3C(C)C)C(=O)N2C1` [Example 276, (1R,2S,5R)-5-methyl-2-(propan-2-yl)cyclohexyl [(2R,6S,12Z,13aS,14aR,16aS)-5′-cyclopropyl-8′-methoxy-14a-{[(1-methylcyclopropyl)sulfonyl]carbamoyl}-5,16-dioxo-1,1′,2′,5,6,7,8,9,10,11,13a,14,14a,15,16,16a-hexadecahydrospiro[cyclopropa[e]pyrrolo[1,2-a][1,4]diazacyclopentadecine-2,3′-pyrano[2,3-c]quinolin]-6-yl]carbamate] gave an EC50 (HCV genotype 1b replicon; [2]) of 104 nM and an IC50 [1, 3] of 3.97 nM.
In the case of `Cc1nc2ccccc2c2c1O[C@]1(CC2)C[C@H]2C(=O)N[C@]3(C(=O)NS(=O)(=O)C4(C)CC4)C[C@H]3/C=C\CCCCC[C@H](NC(=O)OC(C)C(F)(F)F)C(=O)N2C1` (stereo partly drawn) [Example 240, 1,1,1-trifluoropropan-2-yl [(2R,6S,12Z,13aS,14aR,16aS)-5′-methyl-14a-{[(1-methylcyclopropyl)sulfonyl]carbamoyl}-5,16-dioxo-1,1′,2′,5,6,7,8,9,10,11,13a,14,14a,15,16,16a-hexadecahydrospiro[cyclopropa[e]pyrrolo[1,2-a][1,4]diazacyclopentadecine-2,3′-pyrano[2,3-c]quinolin]-6-yl]carbamate], the EC50 (HCV genotype 1b replicon; genotype 1b replicon) is reported as 2.65 nM and the IC50 [1, 5] is reported as 0.01 nM.
For `COc1ccc2nc(C(C)C)c3c(c2c1)C(F)(F)C[C@]1(C[C@H]2C(=O)N[C@]4(C(=O)NS(=O)(=O)C5(C)CC5)C[C@H]4/C=C\CCCCC[C@H](NC(=O)OC(C)(C)C(F)(F)F)C(=O)N2C1)O3` [Example 299, 1,1,1-trifluoro-2-methylpropan-2-yl [(2S,6S,12Z,13aS,14aR,16aS)-1′,1′-difluoro-9′-methoxy-14a-{[(1-methylcyclopropyl)sulfonyl]carbamoyl}-5,16-dioxo-5′-(propan-2-yl)-1,1′,2′,5,6,7,8,9,10,11,13a,14,14a,15,16,16a-hexadecahydrospiro[cyclopropa[e]pyrrolo[1,2-a][1,4]diazacyclopentadecine-2,3′-pyrano[2,3-c]quinolin]-6-yl]carbamate], the EC50 (HCV genotype 1b replicon; Hepatitis C virus, genotype 1b replicon, K+ salt) was 6.37 nM and the IC50 ([1]; IC50 [gt-1b] (nM), NS3/4A genotype 1b, enzyme 0.2 nM, K+ salt) was 0.02 nM.
With `CCc1nc2ccc(OC)cc2c2c1O[C@]1(CC2)C[C@H]2C(=O)N[C@]3(C(=O)NS(=O)(=O)C4(C)CC4)C[C@H]3/C=C\CCCCC[C@H](NC(=O)c3sccc3C)C(=O)N2C1` [Example 480, (2R,6S,12Z,13aS,14aR,16aS)-5′-ethyl-9′-methoxy-N-[(1-methylcyclopropyl)sulfonyl]-6-{[(3-methylthiophen-2-yl)carbonyl]amino}-5,16-dioxo-1,1′,2′,6,7,8,9,10,11,13a,14,15,16,16a-tetradecahydrospiro[cyclopropa[e]pyrrolo[1,2-a][1,4]diazacyclopentadecine-2,3′-pyrano[2,3-c]quinoline]-14a(5H)-carboxamide] the EC50 (HCV genotype 1b replicon; Hepatitis C virus, HCV replicon, genotype 1b) was 0.266 nM and the IC50 [1, 6] was 0.006 nM.
